Laboratory results from patent EP0354042A2, “Aminobenzoic-acid derivatives to reduce side effects induced by an administration of immuno-suppressant” (priority 1988, dated 1990).

How the values were obtained:
Jcl:ICR mice = experiment: Acute toxicity (LD50, Litchfield-Wilcoxon); format: in vivo; settings: observed 7 days; for LD₅₀ Value Intraperitoneal: in physiological saline solution; for LD₅₀ Value Oral: oral by stomach sonde, in distilled water
Experimental: The acute toxicity was studied with Jcl:ICR mice through intraperitoneal route and oral route. For intraperitoneal route, the present substance was dissolved in a physiological saline solution and a predetermined dose of the substance was administered with an injector to the cavity. For oral route, the present substance was dissolved in a distilled water and administered forcibly through a stomach sonde.
After the administration, observation of toxicopathic symptoms of the mice were continued for 7 days and based on time to time death rates of the mice, LD₅₀ values were calculated. Both surviving and dead mice were anatomized and observed certain organs.

Wistar male rats [1] = experiment: Serum biochemical test, total bilirubin (liver function) of rats given CsA with the present substance; format: in vivo; settings: CsA 25 mg/kg/day i.p. 3 weeks plus present substance 300 mg/kg/day orally
Experimental: (§1) Various clearance tests and a saccharide tolerance test were performed after completion of the administrations. Then, after sacrificing the rats, their blood was taken for serum biochemical and general blood tests.

Bacillus subtilis H17 = experiment: Mutagenicity Rec-assay, recombination repair proficient strain; settings: 16 hours at 37°C
Experimental: (§2) First, mutagenecity was studied with Rec-assay. […] The present substance was dissolved with sterlized water, 0.05 ml of the solution was absorbed by a round filter paper having a diameter of 8 mm and immediately the filter paper was laid on the medium (B-II agar) in a manner to cover each of the satrt point of the streak. Then, the mdium was cultured for 16 hours at a temperature of 37°C and measured growth inhibited area. Kanamycin was used as a negative control and mitomycin as a positive control.

[2] = tested on: TA98 of Salmonella typhimurium; experiment: Reversion assay (reversion colony test) TA98; format: cell-based; settings: 5,000 µg/disk, 37°C for 2 days; Drug-free Control 13
Experimental: (§3) In addition, a reversion assay was performed using TA98 and TA100 of Salmonella typhimurium (both are histidine-requiring bacteria).
(§4) 10% by volume of 0.5 mM bithion solution containing 0.5 mM histidine was added to a soft agar solution (prepared with 6g of NaCl, 6g of agar and 1,000 ml of distilled water). Then, 0.1 ml of a solution containing 1 x 10⁸ of the bacteria and 0.1 ml of a solution of the present substance were added to 2 ml of the soft agar solution, mixed well and obtained soft agar solution was multilayered on a minimal agar medium. The medium layered was cultured at 37°C for 2 days and number of reversion colonies was counted. Furylfuramide (AF2) was used as a positive control.

[3] = Body weight of rats given CsA with the present substance; format: in vivo, Wistar male rats; settings: at completion of the test; CsA 25 mg/kg/day i.p. 3 weeks plus present substance 300 mg/kg/day orally
Experimental: as §1

Bacillus subtilis M45 = experiment: Mutagenicity Rec-assay, recombination repair deficient strain; settings: for Growth Inhibited Area M45: 16 hours at 37°C; for Growth Inhibited Area M45 - H17: difference between strains
Experimental: as §2

human lymphocyte = experiment: Mixed lymphocyte culture, 3H-thymidine uptake (proliferation of lymphocytes); format: cell-based; settings: CsA 0.1 µg/ml plus present substance 100 µg/ml, cultured 6 days;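 further: percent suppression of proliferation derived from uptake with CsA alone versus CsA plus substance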
Experimental: A mixture of 50 µl of human lymphocyte (1.6 x 10⁶/ml) with 50 µl of the lymphocytes treated with mitomycin C (MMC) (1.7 x 10⁶/ml) was cultured for 6 days and an uptake of ³H-thymidine, an index of proliferation of lymphocyte, was studied. The medium used for culture comprised bovine fetal serum (10% in quantity) and RPMI 1640 (90% in quantity). […] From the calculated ratio, the effects of the present substance on immuno function were studied.

Wistar male rats [4] = experiment: Saccharide tolerance test (pancreas function) of rats given CsA with the present substance; format: in vivo; settings: CsA 25 mg/kg/day i.p. 3 weeks plus present substance 300 mg/kg/day orally
Experimental: as §1

[5] = tested on: TA100 of Salmonella typhimurium; experiment: Reversion assay (reversion colony test) TA100; format: cell-based; settings: 5,000 µg/disk, 37°C for 2 days; Drug-free Control 149
Experimental: as §3, §4

Wistar male rats [6] = experiment: Kidney function (inulin clearance, serum creatinine) of rats given CsA with the present substance; format: in vivo; settings: CsA 25 mg/kg/day i.p. 3 weeks plus present substance 300 mg/kg/day orally
Experimental: as §1

CC1OC(Nc2ccccc2C(=O)[O-])C(O)C(O)C1O.[Na+] [Compound 20, o-Aminobenzoic acid-N-L-rhamnoside]
LD₅₀ Value Intraperitoneal (Jcl:ICR mice): > 15000 mg/kg | LD₅₀ Value Oral (Jcl:ICR mice): 12500 mg/kg | TBI (seerum total bilirubin value) (Wistar male rats [1]): 0.31 mg/dL | Growth Inhibited Area H17 (Bacillus subtilis H17; 500 µg/disk): 0 mm | Growth Inhibited Area H17 (Bacillus subtilis H17; 5,000 µg/disk): 2 mm | No. of Reversion Colony TA98 [2]: 9 n/plate | Body Weight [3]: 233 g | Growth Inhibited Area M45 (Bacillus subtilis M45; 500 µg/disk): 0 mm | Growth Inhibited Area M45 - H17 (Bacillus subtilis M45; 500 µg/disk): 0 mm | Growth Inhibited Area M45 (Bacillus subtilis M45; 5,000 µg/disk): 6 mm | Growth Inhibited Area M45 - H17 (Bacillus subtilis M45; 5,000 µg/disk): 4 mm | Depressing Ratio (human lymphocyte): 26% | Blood sugar value measured 10 minutes after the test (Wistar male rats [4]): 576 mg/dL | Insuline Value 10 Min.After The Test (Wistar male rats [4]): 6.38 mµ/ml | Insuline Value Before The Test (Wistar male rats [4]): 4.34 mµ/ml | No. of Reversion Colony TA100 [5]: 61 n/plate | Kidney Function Inulin Clearance (Wistar male rats [6]): 1.95 mL/min | Kidney Function Serum Creatinine (Wistar male rats [6]): 0.64 mg/dL

O=C(O)c1ccc(NC2OC[C@H](O)[C@H](O)[C@H]2O)cc1 (stereo partly drawn) [Compound 2, p-Aminobenzoic acid-N-L-arabinoside]
LD₅₀ Value Intraperitoneal (Jcl:ICR mice): 10220 mg/kg | LD₅₀ Value Oral (Jcl:ICR mice): 10800 mg/kg | TBI (seerum total bilirubin value) (Wistar male rats [1]): 0.35 mg/dL | Growth Inhibited Area H17 (Bacillus subtilis H17; 500 µg/disk): 0 mm | Growth Inhibited Area H17 (Bacillus subtilis H17; 5,000 µg/disk): 0 mm | No. of Reversion Colony TA98 [2]: 3 n/plate | Body Weight [3]: 220 g | Growth Inhibited Area M45 (Bacillus subtilis M45; 500 µg/disk): 0 mm | Growth Inhibited Area M45 - H17 (Bacillus subtilis M45; 500 µg/disk): 0 mm | Growth Inhibited Area M45 (Bacillus subtilis M45; 5,000 µg/disk): 0 mm | Growth Inhibited Area M45 - H17 (Bacillus subtilis M45; 5,000 µg/disk): 0 mm | Depressing Ratio (human lymphocyte): 26% | Blood sugar value measured 10 minutes after the test (Wistar male rats [4]): 588 mg/dL | Insuline Value 10 Min.After The Test (Wistar male rats [4]): 6.12 mµ/ml | Insuline Value Before The Test (Wistar male rats [4]): 4.02 mµ/ml | No. of Reversion Colony TA100 [5]: 51 n/plate | Kidney Function Inulin Clearance (Wistar male rats [6]): 1.81 mL/min | Kidney Function Serum Creatinine (Wistar male rats [6]): 0.65 mg/dL

O=C(O)c1ccc(NC2O[C@H](CO)[C@H](O)[C@H](O)[C@H]2O)cc1 (stereo partly drawn) [Compound 14, p-Aminobenzoic acid-N-D-galactoside]
LD₅₀ Value Intraperitoneal (Jcl:ICR mice): 12000 mg/kg | LD₅₀ Value Oral (Jcl:ICR mice): 14550 mg/kg | TBI (seerum total bilirubin value) (Wistar male rats [1]): 0.33 mg/dL | Growth Inhibited Area H17 (Bacillus subtilis H17; 500 µg/disk): 0 mm | Growth Inhibited Area H17 (Bacillus subtilis H17; 5,000 µg/disk): 0 mm | No. of Reversion Colony TA98 [2]: 7 n/plate | Body Weight [3]: 215 g | Growth Inhibited Area M45 (Bacillus subtilis M45; 500 µg/disk): 0 mm | Growth Inhibited Area M45 - H17 (Bacillus subtilis M45; 500 µg/disk): 0 mm | Growth Inhibited Area M45 (Bacillus subtilis M45; 5,000 µg/disk): 0 mm | Growth Inhibited Area M45 - H17 (Bacillus subtilis M45; 5,000 µg/disk): 0 mm | Depressing Ratio (human lymphocyte): 26% | Blood sugar value measured 10 minutes after the test (Wistar male rats [4]): 584 mg/dL | Insuline Value 10 Min.After The Test (Wistar male rats [4]): 6.10 mµ/ml | Insuline Value Before The Test (Wistar male rats [4]): 4.13 mµ/ml | No. of Reversion Colony TA100 [5]: 51 n/plate | Kidney Function Inulin Clearance (Wistar male rats [6]): 1.88 mL/min | Kidney Function Serum Creatinine (Wistar male rats [6]): 0.66 mg/dL

C[C@@H]1OC(Nc2ccc(C(=O)O)cc2)[C@H](O)[C@H](O)[C@H]1O (stereo partly drawn) [Compound 18, p-Aminobenzoic acid-N-L-rhamnoside]
LD₅₀ Value Intraperitoneal (Jcl:ICR mice): 15000 mg/kg | LD₅₀ Value Oral (Jcl:ICR mice): 12800 mg/kg | TBI (seerum total bilirubin value) (Wistar male rats [1]): 0.29 mg/dL | Growth Inhibited Area H17 (Bacillus subtilis H17; 500 µg/disk): 0 mm | Growth Inhibited Area H17 (Bacillus subtilis H17; 5,000 µg/disk): 0 mm | No. of Reversion Colony TA98 [2]: 4 n/plate | Body Weight [3]: 238 g | Growth Inhibited Area M45 (Bacillus subtilis M45; 500 µg/disk): 0 mm | Growth Inhibited Area M45 - H17 (Bacillus subtilis M45; 500 µg/disk): 0 mm | Growth Inhibited Area M45 (Bacillus subtilis M45; 5,000 µg/disk): 0 mm | Growth Inhibited Area M45 - H17 (Bacillus subtilis M45; 5,000 µg/disk): 0 mm | Depressing Ratio (human lymphocyte): 27% | Blood sugar value measured 10 minutes after the test (Wistar male rats [4]): 573 mg/dL | Insuline Value 10 Min.After The Test (Wistar male rats [4]): 6.44 mµ/ml | Insuline Value Before The Test (Wistar male rats [4]): 4.30 mµ/ml | No. of Reversion Colony TA100 [5]: 73 n/plate | Kidney Function Inulin Clearance (Wistar male rats [6]): 1.97 mL/min | Kidney Function Serum Creatinine (Wistar male rats [6]): 0.64 mg/dL
